Data taken from patent US4849345A, “L-phenylalanine dehydrogenase and use thereof” (priority 1985, dated 1989).
Like-named read-outs stand apart in the source and are kept apart here.

What was measured:
[1] = target: T1, L-phenylalanine dehydrogenase produced by Bacillus sp. SCRC-R79a (Lysinibacillus sphaericus, UniProt P23307); assay: Substrate and coenzyme specificity, oxidative deamination (Bacillus enzyme); type: biochemical; set-up: inoculated with Bacillus sp; endogenous in cells; host or cells: Bacillus sp; enzyme purified in house
T1 sequence (P23307 1-381): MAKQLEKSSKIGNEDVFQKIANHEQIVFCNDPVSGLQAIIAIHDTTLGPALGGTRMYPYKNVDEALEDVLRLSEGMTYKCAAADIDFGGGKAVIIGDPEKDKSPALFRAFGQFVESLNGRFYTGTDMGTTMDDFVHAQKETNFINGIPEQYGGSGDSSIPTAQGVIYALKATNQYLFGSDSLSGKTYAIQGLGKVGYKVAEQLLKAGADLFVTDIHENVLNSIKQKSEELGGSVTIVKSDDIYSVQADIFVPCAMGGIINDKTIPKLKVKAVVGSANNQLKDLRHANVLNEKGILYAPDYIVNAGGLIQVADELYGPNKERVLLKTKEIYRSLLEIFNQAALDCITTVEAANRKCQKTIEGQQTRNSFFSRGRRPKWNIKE
Experimental: The substrate concentration is 10 mM except for the L-tyrosine concentration which is 1.4 mM.

[2] = target: T2, L-phenylalanine dehydrogenase produced by Sporosarcina ureae SCRC-R04 (Sporosarcina ureae, UniProt P97014); assay: Substrate and coenzyme specificity, oxidative deamination (Sporosarcina enzyme); type: biochemical; settings: for activity at 10000 µM: substrate concentration 10 mM, L-phenylalanine = 100
T2 sequence (P97014 1-379): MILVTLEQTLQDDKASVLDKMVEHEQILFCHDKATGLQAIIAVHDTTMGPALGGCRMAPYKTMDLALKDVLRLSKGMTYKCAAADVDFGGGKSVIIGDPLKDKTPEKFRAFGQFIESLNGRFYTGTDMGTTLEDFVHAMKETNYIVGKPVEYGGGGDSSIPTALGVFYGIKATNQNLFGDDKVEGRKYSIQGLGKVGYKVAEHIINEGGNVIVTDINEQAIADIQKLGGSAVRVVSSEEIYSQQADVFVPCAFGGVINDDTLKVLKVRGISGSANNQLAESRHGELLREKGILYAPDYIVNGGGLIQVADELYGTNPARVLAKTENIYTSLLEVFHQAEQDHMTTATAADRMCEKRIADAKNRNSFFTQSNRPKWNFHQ
Experimental: The substrate concentration is 10 mM, except for the L-tyrosine concentration which is 1.4 mM.

[3] = target: T1, L-phenylalanine dehydrogenase produced by Bacillus sp. SCRC-R79a; settings: pH 9.0; phenylpyruvate to L-phenylalanine as 100%
[4] = oxidative deamination, substrate concentration 10 mM, L-phenylalanine = 100, read-out: Relative activity (%)
[5] = oxidative deamination, read-out: Relative activity (%)
[6] = read-out: Relative activity (%)

Structure (SMILES) | action of the enzyme on the amino acid as substrate (in words) ([1]; oxidative deamination) | action of the enzyme on the amino acid as substrate (in words) ([2]; oxidative deamination) | activity at 10000 µM [2, 5] | also measured
N[C@@H](Cc1ccccc1)C(=O)O [L--Phenylalanine, L-phenylalanine] | acting strongly | acting strongly | 100% | activity at 10000 µM [1, 4]: 100%
CC(C)C[C@H](N)C(=O)O [L--Leucine, L-leucine] | cannot serve as a substrate |  | 2.3% | 
N[C@@H](Cc1ccc(O)cc1)C(=O)O [L--Tyrosine, L-tyrosine] | acting strongly | act very weakly |  | activity at 1400 µM [1, 6]: 72%; activity at 1400 µM ([2]; oxidative deamination, substrate concentration 1.4 mM, read-out: Relative activity (%)): 5.4%
C[C@@H](O)[C@H](N)C(=O)O [L-threonine] | cannot serve as a substrate | cannot serve as a substrate |  | 
N[C@@H](CO)C(=O)O [L-serine] | cannot serve as a substrate | cannot serve as a substrate |  | 
N[C@H](Cc1ccccc1)C(=O)O [D-phenylalanine] | cannot serve as a substrate | cannot serve as a substrate |  | 
NC(=O)c1ccc[n+]([C@@H]2O[C@H](COP(=O)([O-])OP(=O)(O)OC[C@H]3O[C@@H](n4cnc5c(N)ncnc54)[C@H](OP(=O)(O)O)[C@@H]3O)[C@@H](O)[C@H]2O)c1 [NADP^+] |  |  |  | activity relative to NAD^+ as coenzyme ([1]; coenzyme): ~2.9%; activity relative to NAD^+ as coenzyme ([2]; coenzyme): about 3.9%
CSCC[C@H](N)C(=O)O [L--Methionine, L-methionine] | acting very weakly | act very weakly | 4.1% | activity at 10000 µM [1, 6]: 3%
N[C@@H](CC(=O)O)C(=O)O [L-aspartic acid] | cannot serve as a substrate | cannot serve as a substrate |  | 
CCC[C@H](N)C(=O)O [L--Norvaline, L-norvaline] |  |  | 6.3% | activity at 10000 µM [1, 4]: 1.3%
O=C(O)[C@@H]1CCCN1 [L-proline] | cannot serve as a substrate | cannot serve as a substrate |  | 
CC[C@H](C)[C@H](N)C(=O)O [L--Isoleucine, L-isoleucine] | cannot serve as a substrate |  | 0.54% | 
CC(C)[C@H](N)C(=O)O [L--Valine, L-valine] | cannot serve as a substrate |  | 3.1% | 
N[C@@H](CCC(=O)O)C(=O)O [L-glutamic acid] | cannot serve as a substrate | cannot serve as a substrate |  | 
CCCC[C@H](N)C(=O)O [L--Norleucine, L-norleucine] |  |  | 15% | activity at 10000 µM [1, 4]: 3.9%
N[C@@H](Cc1c[nH]cn1)C(=O)O [L-histidine] | cannot serve as a substrate | cannot serve as a substrate |  | 
NCCCC[C@H](N)C(=O)O [L-lysine] | cannot serve as a substrate | cannot serve as a substrate |  | 
C[C@H](N)C(=O)O [L-alanine] | cannot serve as a substrate | cannot serve as a substrate |  | 
NC(=O)C[C@H](N)C(=O)O [L-asparagine] | cannot serve as a substrate | cannot serve as a substrate |  | 
CCSCC[C@H](N)C(=O)O [L--Ethionine, L-ethionine] |  |  | 7% | activity at 10000 µM [1, 6]: 3.1%
N[C@@H](CS)C(=O)O [L-cysteine] | cannot serve as a substrate | cannot serve as a substrate |  | 
NC(C(=O)O)c1ccccc1 (racemic) [DL-phenylglycine] |  | cannot serve as a substrate |  | 
N=C(N)NCCC[C@H](N)C(=O)O [L-arginine] | cannot serve as a substrate | cannot serve as a substrate |  | 
O=C(O)C(=O)Cc1ccccc1 [phenylpyruvate] |  |  |  | relative rate of converting the α-keto acid to the L-amino acid [3]: 100%
CC[C@H](N)C(=O)O [L-α-amino-n-butyric acid] | cannot serve as a substrate |  |  | 
N[C@@H](Cc1c[nH]c2ccccc12)C(=O)O [L--Tryptophan, L-tryptophan] | acting very weakly | act very weakly | 6.8% | activity at 10000 µM [1, 4]: 1.6%
NC(=O)CC[C@H](N)C(=O)O [L-glutamine] | cannot serve as a substrate | cannot serve as a substrate |  | 
